Starred links: 1 amine or outer side, 2 acyl side, 3 side chain; linkers in the order of their positions; H or OH if unused. Positions of bridges follow the written chain, without caps; N, C: chain ends. Non-standard residues stand in square brackets, D forms with d. Residues, ends and D or L forms follow the SMILES beside them. *: point of attachment. Trp(7-Me) = Cc1cccc2c(C[C@H](N)C(=O)O)c[nH]c12; Abu(4-yl) = O=C([C@H](CC[*:3])N[*:1])[*:2]; 2Nal = N[C@@H](Cc1ccc2ccccc2c1)C(=O)O; AEF = NCCOc1ccc(C[C@H](N)C(=O)O)cc1; αMeF = C[C@](N)(Cc1ccccc1)C(=O)O; αMeE = C[C@](N)(CCC(=O)O)C(=O)O; Cit = NC(=O)NCCC[C@H](N)C(=O)O; αMeL = CC(C)C[C@](C)(N)C(=O)O; Pen = CC(C)(S)[C@H](N)C(=O)O; αMeK = C[C@](N)(CCCCN)C(=O)O; Ac5c = NC1(C(=O)O)CCCC1; Thp = NC1(C(=O)O)CCOCC1; Aib = CC(C)(N)C(=O)O; Propionyl = CCC(=O)*; X4 = C1CC(N*)CCN1
biological target: IL-23R (Homo sapiens, UniProt Q5VWK5); experiment: cell-based; conditions: PBMC pSTAT3 IC50 (nM), PBMCs from healthy donors, IL-23 5 ng/mL, 30 minutes, phosphorylated STAT3
Sequence (Q5VWK5 24-629): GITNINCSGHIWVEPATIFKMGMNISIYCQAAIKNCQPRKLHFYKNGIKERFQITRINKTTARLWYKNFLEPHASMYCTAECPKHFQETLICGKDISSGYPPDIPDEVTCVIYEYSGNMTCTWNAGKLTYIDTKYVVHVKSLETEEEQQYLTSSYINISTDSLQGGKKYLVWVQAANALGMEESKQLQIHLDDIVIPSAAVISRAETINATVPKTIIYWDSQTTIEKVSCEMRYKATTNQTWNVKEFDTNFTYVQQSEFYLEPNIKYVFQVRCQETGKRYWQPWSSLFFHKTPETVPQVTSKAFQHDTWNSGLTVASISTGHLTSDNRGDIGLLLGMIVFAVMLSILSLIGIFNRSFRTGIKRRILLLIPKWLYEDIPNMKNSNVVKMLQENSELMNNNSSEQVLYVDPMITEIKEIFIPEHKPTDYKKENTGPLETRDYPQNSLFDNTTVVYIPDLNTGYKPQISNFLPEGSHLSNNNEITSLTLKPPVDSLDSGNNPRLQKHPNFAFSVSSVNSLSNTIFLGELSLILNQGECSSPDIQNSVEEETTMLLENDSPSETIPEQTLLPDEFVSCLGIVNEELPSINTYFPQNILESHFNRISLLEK
Protocol: Cryopreserved peripheral blood mononuclear cells (PBMCs) from healthy donors were thawed and washed twice in ImmunoCult-XF T cell expansion medium (XF-TCEM) supplemented with CTL anti-aggregate wash. […] The cells were stimulated with cytokine for 30 minutes at 37° C. in 5% CO2, transferred onto ice for 10 minutes, and lysed. Cell lysates were stored at −80° C. until phosphorylated STAT3 was measured using the phospho-STAT panel kit (Meso Scale Discovery, K15202D).
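Note: cryopreserved PBMCs stimulated at 37 °C in 5% CO2, then lysed, with phosphorylated STAT3 quantified in lysates using a phospho-STAT panel kit.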

Row | SMILES | IC50
1 | CC(=O)NCCCC[C@H](NC(=O)[C@](C)(CC(C)C)NC(=O)[C@H](Cc1ccc2ccccc2c1)NC(=O)[C@H](Cc1ccc(OCCN)cc1)NC(=O)[C@H]1NC(=O)[C@H](CCCNC(N)=O)NC(=O)[C@H](Cc2c[nH]c3c(C)cccc23)NC(=O)[C@H]([C@@H](C)O)NC(=O)[C@H](CC(N)=O)NC(=O)[C@@H](NC(C)=O)C(C)(C)SSC1(C)C)C(=O)N[C@@H](CC(N)=O)C(=O)NC1(C(N)=O)CCOCC1 [Compound 108, Ac-[Pen]-N-T-[W(7-Me)]-[Cit]-[Pen]-Phe[4-(2-aminoethoxy)]-[2-Nal]-[aMeLeu]-[Lys(Ac)]-N-[THP]-NH2] (Ac-[Pen]NT[Trp(7-Me)][Cit][Pen][AEF][2Nal][αMeL]K(Ac)N[Thp]-NH2; disulfide 1-6) | 5.1 nM
2 | CC(=O)N[C@H](CCCNC(=N)N)C(=O)N[C@H]1CCSC[C@@H](C(=O)N[C@@H](Cc2ccc(OCCN)cc2)C(=O)N[C@@H](Cc2ccc3ccccc3c2)C(=O)NC2(C(=O)N[C@@](C)(CCC(=O)O)C(=O)N[C@@H](CC(N)=O)C(=O)N[C@@H](Cc3ccccc3)C(=O)NC(C)(C)C(=O)N[C@@](C)(CCCCN)C(N)=O)CCOCC2)NC(=O)[C@H](CCC(N)=O)NC(=O)[C@H](Cc2c[nH]c3ccccc23)NC(=O)[C@H]([C@@H](C)O)NC(=O)[C@H](CCC(N)=O)NC1=O [Compound 43, Ac-[(D)Arg]-[Abu]-Q-T-W-Q-[Cys]-Phe[4-(2-aminoethoxy)]-[2-Nal]-[THP]-[aMeGlu]-N-F-[Aib]-[a-MeLys]-NH2] (Ac-[dR][Abu(4-yl)]QTWQC[AEF][2Nal][Thp][αMeE]NF[Aib][αMeK]-NH2; thioether 2-7) | 8.2 nM
3 | CC(=O)NCCCC[C@H](NC(=O)[C@](C)(CCCCN)NC(=O)[C@H](Cc1ccc2ccccc2c1)NC(=O)[C@H](Cc1ccc(OCCN)cc1)NC(=O)[C@H]1NC(=O)[C@H](CCC(N)=O)NC(=O)[C@H](Cc2c[nH]c3c(C)cccc23)NC(=O)[C@H]([C@@H](C)O)NC(=O)[C@H](CC(N)=O)NC(=O)[C@@H](NC(C)=O)C(C)(C)SSC1(C)C)C(=O)N[C@@H](CC(N)=O)C(=O)N[C@@](C)(Cc1ccccc1)C(N)=O [Compound 89, Ac-[Pen]-N-T-[W(7-Me)]-Q-[Pen]-Phe[4-(2-aminoethoxy)]-[2-Nal]-[a-MeLys]-[Lys(Ac)]-N-[a-MePhe]-NH2] | 12 nM
4 | CCC(=O)N[C@H](CCCNC(=N)N)C(=O)N[C@@H]1C(=O)N[C@@H](CCC(N)=O)C(=O)N[C@@H]([C@@H](C)O)C(=O)N[C@@H](Cc2c[nH]c3ccccc23)C(=O)N[C@@H](CCC(N)=O)C(=O)N[C@H](C(=O)N[C@@H](Cc2ccc(OCCN)cc2)C(=O)N[C@@H](Cc2ccc3ccccc3c2)C(=O)NC2(C(=O)N[C@@H](CCC(=O)O)C(=O)N[C@@H](CC(N)=O)C(=O)NC3(C(N)=O)CCOCC3)CCOCC2)C(C)(C)SSC1(C)C [Compound 10, [Propionic_acid]-[(D)Arg]-[Pen]-Q-T-W-Q-[Pen]-Phe[4-(2-aminoethoxy)]-[2-Nal]-[THP]-E-N-[THP]-NH2] (Propionyl-[dR][Pen]QTWQ[Pen][AEF][2Nal][Thp]EN[Thp]-NH2; disulfide 2-7) | 4.6 nM
5 | CC(=O)NCCCC[C@H](NC(=O)[C@](C)(CC(C)C)NC(=O)[C@H](Cc1ccc2ccccc2c1)NC(=O)[C@H](Cc1ccc(OCCN)cc1)NC(=O)[C@H]1NC(=O)[C@H](CCCNC(N)=O)NC(=O)[C@H](Cc2c[nH]c3c(C)cccc23)NC(=O)[C@H]([C@@H](C)O)NC(=O)[C@H](CC(N)=O)NC(=O)[C@@H](NC(C)=O)C(C)(C)SSC1(C)C)C(=O)N[C@@H](CC(N)=O)C(=O)N[C@@](C)(Cc1ccccc1)C(N)=O [Compound 104, Ac-[Pen]-N-T-[W(7-Me)]-[Cit]-[Pen]-Phe[4-(2-aminoethoxy)]-[2-Nal]-[aMeLeu]-[Lys(Ac)]-N-[a-MePhe]-NH2] (Ac-[Pen]NT[Trp(7-Me)][Cit][Pen][AEF][2Nal][αMeL]K(Ac)N[αMeF]-NH2; disulfide 1-6) | 8.2 nM
6 | CC(=O)N[C@H](CCCNC(=N)N)C(=O)N[C@@H]1C(=O)N[C@@H](CC(N)=O)C(=O)N[C@@H]([C@@H](C)O)C(=O)N[C@@H](Cc2c[nH]c3c(C)cccc23)C(=O)N[C@@H](CCC(N)=O)C(=O)N[C@H](C(=O)N[C@@H](Cc2ccc(OCCN)cc2)C(=O)N[C@@H](Cc2ccc3ccccc3c2)C(=O)NC2(C(=O)N[C@@H](CCC(=O)O)C(=O)N[C@@H](CC(N)=O)C(=O)N[C@@](C)(Cc3ccccc3)C(N)=O)CCOCC2)C(C)(C)SSC1(C)C [Compound 91, Ac-[(D)Arg]-[Pen]-N-T-[W(7-Me)]-Q-[Pen]-Phe[4-(2-aminoethoxy)]-[2-Nal]-[THP]-E-N-[a-MePhe]-NH2] (Ac-[dR][Pen]NT[Trp(7-Me)]Q[Pen][AEF][2Nal][Thp]EN[αMeF]-NH2; disulfide 2-7) | 4.1 nM
7 | CC(=O)N[C@H](CCCNC(=N)N)C(=O)N[C@@H]1C(=O)N[C@@H](CCC(N)=O)C(=O)N[C@@H]([C@@H](C)O)C(=O)N[C@@H](Cc2c[nH]c3ccccc23)C(=O)N[C@@H](CCC(N)=O)C(=O)N[C@H](C(=O)N[C@@H](Cc2ccc(OCCN)cc2)C(=O)N[C@@H](Cc2ccc3ccccc3c2)C(=O)NC2(C(=O)N[C@@H](CCC(=O)O)C(=O)N[C@@H](CC(N)=O)C(=O)N[C@@H](CC(=O)NC3CCNCC3)C(N)=O)CCOCC2)C(C)(C)SSC1(C)C [Compound 127, Ac-[(D)Arg]-[Pen]-Q-T-W-Q-[Pen]-Phe[4-(2-aminoethoxy)]-[2-Nal]-[THP]-E-N-[(N-Pip)Asn]-NH2] (Ac-[dR][Pen]QTWQ[Pen][AEF][2Nal][Thp]END(X4)-NH2; disulfide 2-7) | 48 nM
8 | CC(=O)NCCCC[C@@H]1NC(=O)[C@H](Cc2c[nH]c3c(C)cccc23)NC(=O)[C@H]([C@@H](C)O)NC(=O)[C@H](CC(N)=O)NC(=O)[C@@H](NC(C)=O)C(C)(C)SSC(C)(C)[C@@H](C(=O)N[C@@H](Cc2ccc(OCCN)cc2)C(=O)N[C@@H](Cc2ccc3ccccc3c2)C(=O)N[C@@](C)(CCCCN)C(=O)N[C@@H](CCCCNC(C)=O)C(=O)N[C@@H](CC(N)=O)C(=O)N[C@@](C)(Cc2ccccc2)C(=O)N[C@H](Cc2cccc(N)c2)C(N)=O)NC1=O [Compound 115, Ac-[Pen]-N-T-[W(7-Me)]-[Lys(Ac)]-[Pen]-Phe[4-(2-aminoethoxy)]-[2-Nal]-[a-MeLys]-[Lys(Ac)]-N-[a-MePhe]-(D)Phe[3-NH2]-NH2] | 39 nM
9 | CC(=O)N[C@H](CCCNC(=N)N)C(=O)N[C@H]1CCSC[C@@H](C(=O)N[C@@H](Cc2ccc(OCCN)cc2)C(=O)N[C@@H](Cc2ccc3ccccc3c2)C(=O)NC2(C(=O)NC(C)(C)C(=O)N[C@@H](CC(N)=O)C(=O)N[C@@H](Cc3ccccc3)C(N)=O)CCOCC2)NC(=O)[C@H](CCC(N)=O)NC(=O)[C@H](Cc2c[nH]c3ccccc23)NC(=O)[C@H]([C@@H](C)O)NC(=O)[C@H](CCC(N)=O)NC1=O [Compound 49, Ac-[(D)Arg]-[Abu]-Q-T-W-Q-[Cys]-Phe[4-(2-aminoethoxy)]-[2-Nal]-[THP]-[Aib]-N-F-NH2] (Ac-[dR][Abu(4-yl)]QTWQC[AEF][2Nal][Thp][Aib]NF-NH2; thioether 2-7) | 18 nM
10 | CC(=O)NCCCC[C@@H]1NC(=O)[C@H](Cc2c[nH]c3ccccc23)NC(=O)[C@H]([C@@H](C)O)NC(=O)[C@H](CC(N)=O)NC(=O)[C@@H](NC(=O)[C@@H](CCCNC(=N)N)NC(C)=O)C(C)(C)SSC(C)(C)[C@@H](C(=O)N[C@@H](Cc2ccc(OCCN)cc2)C(=O)N[C@@H](Cc2ccc3ccccc3c2)C(=O)NC2(C(=O)N[C@@H](CCC(=O)O)C(=O)N[C@@H](CC(N)=O)C(=O)N[C@@](C)(Cc3ccccc3)C(N)=O)CCCC2)NC1=O [Compound 102, Ac-[(D)Arg]-[Pen]-N-T-W-[Lys(Ac)]-[Pen]-Phe[4-(2-aminoethoxy)]-[2-Nal]-[Acvc]-E-N-[a-MePhe]-NH2] (Ac-[dR][Pen]NTWK(Ac)[Pen][AEF][2Nal][Ac5c]EN[αMeF]-NH2; disulfide 2-7) | 8.4 nM
11 | CC(=O)NCCCC[C@@H]1NC(=O)[C@H](Cc2c[nH]c3ccccc23)NC(=O)[C@H]([C@@H](C)O)NC(=O)[C@H](CC(N)=O)NC(=O)[C@@H](NC(=O)[C@@H](CCCNC(=N)N)NC(C)=O)C(C)(C)SSC(C)(C)[C@@H](C(=O)N[C@@H](Cc2ccc(OCCN)cc2)C(=O)N[C@@H](Cc2ccc3ccccc3c2)C(=O)NC2(C(=O)N[C@@H](CCC(=O)O)C(=O)N[C@@H](CC(N)=O)C(=O)N[C@@](C)(Cc3ccccc3)C(N)=O)CCOCC2)NC1=O [Compound 106, Ac-[(D)Arg]-[Pen]-N-T-W-[Lys(Ac)]-[Pen]-Phe[4-(2-aminoethoxy)]-[2-Nal]-[THP]-E-N-[a-MePhe]-NH2] (Ac-[dR][Pen]NTWK(Ac)[Pen][AEF][2Nal][Thp]EN[αMeF]-NH2; disulfide 2-7) | 13 nM
12 | CC(=O)NCCCC[C@@H]1NC(=O)[C@H](Cc2c[nH]c3c(C)cccc23)NC(=O)[C@H]([C@@H](C)O)NC(=O)[C@H](CC(N)=O)NC(=O)[C@@H](NC(C)=O)C(C)(C)SSC(C)(C)[C@@H](C(=O)N[C@@H](Cc2ccc(OCCN)cc2)C(=O)N[C@@H](Cc2ccc3ccccc3c2)C(=O)N[C@@](C)(CCCCN)C(=O)N[C@@H](CCCCNC(C)=O)C(=O)N[C@@H](CC(N)=O)C(=O)N[C@@](C)(Cc2ccccc2)C(N)=O)NC1=O [Compound 76, Ac-[Pen]-N-T-[W(7-Me)]-[Lys(Ac)]-[Pen]-Phe[4-(2-aminoethoxy)]-[2-Nal]-[a-MeLys]-[Lys(Ac)]-N-[a-MePhe]-NH2] | 11 nM
13 | CC(=O)NCCCC[C@@H]1NC(=O)[C@H](Cc2c[nH]c3c(C)cccc23)NC(=O)[C@H]([C@@H](C)O)NC(=O)[C@H](CC(N)=O)NC(=O)[C@@H](NC(C)=O)C(C)(C)SSC(C)(C)[C@@H](C(=O)N[C@@H](Cc2ccc(OCCN)cc2)C(=O)N[C@@H](Cc2ccc3ccccc3c2)C(=O)N[C@@](C)(CCCCN)C(=O)N[C@@H](CCCCNC(C)=O)C(=O)N[C@@H](CC(N)=O)C(=O)N[C@@](C)(Cc2ccccc2)C(=O)N[C@H](Cc2ccc(O)cc2)C(N)=O)NC1=O [Compound 100, Ac-[Pen]-N-T-[W(7-Me)]-[Lys(Ac)]-[Pen]-Phe[4-(2-aminoethoxy)]-[2-Nal]-[a-MeLys]-[Lys(Ac)]-N-[a-MePhe]-[(D)Tyr]-NH2] | 21 nM

— patent publication US20240383954A1, “PEPTIDE INHIBITORS OF INTERLEUKIN-23 RECEPTOR AND THEIR USE TO TREAT INFLAMMATORY DISEASES” (Janssen Biotech, Inc., priority 2020, published 2024)
